Converted amounts (≈) assume the structure as drawn. Counter-ions that a name gives are not always drawn. Like-named read-outs stand apart in the source and are kept apart here.
Tests used:
[1] = tested on: S. aureus 34-81; assay: In vitro antibacterial MIC/MBC test; assay type: cell-based; details: Staphylococcus aureus, 3481
Procedure: (§1) Win 52,522 and Win 35,439 were solubilized in 0.1 ml of 0.5 N NaOH/mg of compound and diluted in sterile distilled water to 160 mcg/ml. Vancomycin and methicillin were solubilized in sterile distilled water to 1250 mcg/ml of base compound. The stock solutions were sterilized by filtration through membrane filters with a 0.45 μm pore size.
(§2) The bacterial cultures listed in Table I (hereinbelow) were grown overnight at 37° C. in MHB for all cultures except the Streptococcus strains. These were grown in BHI+10% NHS. The overnight broth cultures were adjusted to an optical density of 0.10 (650 nm, B L Spectronic 20) in sterile distilled water and subsequently diluted to 6.7×10^6 cells/ml in MHB or BHI+1% NHS.
(§3) Serial two-fold dilutions of the compound solutions were prepared in MHB (or in BHI+1% NHS for tests with Streptococci) and dispensed into 96-well microtiter trays in a volume of 0.1 ml/well using a Sandy Springs (Bellco Glass Co.) dispenser. The trays were then inoculated with 0.0015 ml of a suspension containing 6.7×10^6 cells/ml of the appropriate inoculum using a MIC-2000 inoculator (Dynatech Corp.) resulting in a final inoculum of approximately 1×10^4 cells/well or 1×10^5 cells/ml. The trays were incubated at 37° C. for 18-20 hours and the minimal inhibitory concentration (MIC), defined as the lowest concentration of compound to inhibit visible bacterial growth, was recorded.
(§4) After the MIC values were recorded, the contents in the microtiter trays were thoroughly mixed on a Bellco Mini-orbital Shaker (Bellco Glass Co.) for 3 min. at a setting of 8. A portion (0.0015 ml) from each well was then transferred via an MIC-2000 inoculator to plates containing MHA or BHI agar+10% NHS. The plates were incubated at 37° C. for 18-20 hrs. The minimal bactericidal concentration (MBC), defined as the lowest concentration of compound that prevented the formation of a recognizable colony on the agar surface, was recorded.

[2] = tested on: S. aureus 4-81; assay: In vitro antibacterial MIC/MBC test; assay type: cell-based; details: Staphylococcus aureus, 481
Procedure: as §1, §2, §3, §4

[3] = tested on: S. aureus 41-81; assay: In vitro antibacterial MIC/MBC test; assay type: cell-based; details: Staphylococcus aureus, 4181
Procedure: as §1, §2, §3, §4

[4] = tested on: S. aureus Glorgio; assay: In vitro antibacterial MIC/MBC test; assay type: cell-based; details: Staphylococcus aureus
Procedure: as §1, §2, §3, §4

[5] = tested on: S. aureus S-500; assay: In vitro antibacterial MIC/MBC test; assay type: cell-based; details: Staphylococcus aureus, S500
Procedure: as §1, §2, §3, §4

[6] = tested on: S. aureus Smith; assay: In vitro antibacterial MIC/MBC test; assay type: cell-based; details: Staphylococcus aureus
Procedure: as §1, §2, §3, §4

[7] = tested on: S. epidermidis (12228); assay: In vitro antibacterial MIC/MBC test; assay type: cell-based; details: Staphylococcus epidermidis, ATCC12228
Procedure: as §1, §2, §3, §4

[8] = tested on: S. epidermidis (17917); assay: In vitro antibacterial MIC/MBC test; assay type: cell-based; details: Staphylococcus epidermidis, ATCC17917
Procedure: as §1, §2, §3, §4

[9] = tested on: S. epidermidis 1-5-H; assay: In vitro antibacterial MIC/MBC test; assay type: cell-based; details: Staphylococcus epidermidis, 15H
Procedure: as §1, §2, §3, §4

[10] = tested on: S. epidermidis 2-1-B; assay: In vitro antibacterial MIC/MBC test; assay type: cell-based; details: Staphylococcus epidermidis, 21B
Procedure: as §1, §2, §3, §4

[11] = tested on: S. faecalis (11700); assay: In vitro antibacterial MIC/MBC test; assay type: cell-based; details: Enterococcus faecalis, ATCC11700
Procedure: as §1, §2, §3, §4

[12] = tested on: S. pneumoniae Type III; assay: In vitro antibacterial MIC/MBC test; assay type: cell-based; details: Streptococcus pneumoniae
Procedure: as §1, §2, §3, §4

[13] = tested on: S. pneumoniae Type I; assay: In vitro antibacterial MIC/MBC test; assay type: cell-based; details: Streptococcus pneumoniae
Procedure: as §1, §2, §3, §4

[14] = tested on: S. pyogenes (89); assay: In vitro antibacterial MIC/MBC test; assay type: cell-based; details: Streptococcus pyogenes
Procedure: as §1, §2, §3, §4

[15] = tested on: S. edidermidis; assay: In vitro MIC/MBC summary (Table II); assay type: cell-based, S. epidermidis; details: Staphylococcus epidermidis; for MIC: read-out: MIC Range
Procedure: as §1, §2, §3, §4

[16] = tested on: Staphylococcus aureus Smith; assay: Mouse protection test, S. aureus Smith infection, single dose; assay type: in vivo, ICR mice; Staphylococcus aureus; details: for Survivors/Total: single dose
Procedure: ICR mice, female, 18-20 grams each.
Solutions of Win 52,522 and Win 35,439 were prepared by dissolving the appropriate weight of drug in 0.3 to 0.4 ml of 1 N NaOH and then bringing the solutions to the desired volume with distilled water. Methicillin and vancomycin were dissolved directly in distilled water.
Two and one-half ml of pool were added to 247.5 ml of 5% gastric mucin to provide the test inoculum containing 2.1×10^4 cells/ml.
Mice were inoculated intraperitoneally with 0.5 ml of the bacterial test inoculum.
1. Single dose test--Mice were medicated subcutaneously or orally once (0.5 ml) one-half hour postinfection.
Deaths were recorded daily for seven days for all tests. Fifty percent protective dose values (PD50's) were calculated using probit analysis [SAS Users Guide: Statistics, 1982 Edition, SAS Institute, Inc., Cary, N.C.].

COc1cccc(OC)c1C(=O)N[C@@H]1C(=O)N2[C@@H]1SC(C)(C)[C@@H]2C(=O)O [Methicillin, 6-(2,6-dimethoxybenzamido)penicillanic acid sodium salt]
MBC ([1]; S. aureus 34-81, read-out: MBC): 2 µg/mL | MIC ([1]; S. aureus 34-81, read-out: MIC): 1 µg/mL | MBC ([2]; S. aureus 4-81, read-out: MBC): 2 µg/mL | MIC ([2]; S. aureus 4-81, read-out: MIC): 2 µg/mL | MBC ([3]; S. aureus 41-81, read-out: MBC): 1 µg/mL | MIC ([3]; S. aureus 41-81, read-out: MIC): 1 µg/mL | MBC ([4]; S. aureus Glorgio, read-out: MBC): 4 µg/mL | MIC ([4]; S. aureus Glorgio, read-out: MIC): 2 µg/mL | MBC ([5]; S. aureus S-500, read-out: MBC): 32 µg/mL | MIC ([5]; S. aureus S-500, read-out: MIC): 8 µg/mL | MBC ([6]; S. aureus Smith, read-out: MBC): 1 µg/mL | MIC ([6]; S. aureus Smith, read-out: MIC): 1 µg/mL | MBC ([7]; S. epidermidis ATCC No. 12228, read-out: MBC): 4 µg/mL | MIC ([7]; S. epidermidis ATCC No. 12228, read-out: MIC): 4 µg/mL | MBC ([8]; S. epidermidis ATCC No. 17917, read-out: MBC): 4 µg/mL | MIC ([8]; S. epidermidis ATCC No. 17917, read-out: MIC): 4 µg/mL | MBC ([9]; S. epidermidis 1-5-H, read-out: MBC): 2 µg/mL | MIC ([9]; S. epidermidis 1-5-H, read-out: MIC): 1 µg/mL | MBC ([10]; S. epidermidis 2-1-B, read-out: MBC): 2 µg/mL | MIC ([10]; S. epidermidis 2-1-B, read-out: MIC): 1 µg/mL | MBC ([11]; S. faecalis ATCC No. 11700, read-out: MBC): 64 µg/mL | MIC ([11]; S. faecalis ATCC No. 11700, read-out: MIC): 64 µg/mL | MBC ([12]; S. pneumoniae Type III, read-out: MBC): 0.125 µg/mL | MIC ([12]; S. pneumoniae Type III, read-out: MIC): 0.125 µg/mL | MBC ([13]; S. pneumoniae Type I, read-out: MBC): ≤ 0.06 µg/mL | MIC ([13]; S. pneumoniae Type I, read-out: MIC): ≤ 0.06 µg/mL | MBC ([14]; S. pyogenes SWRI No. 89, read-out: MBC): ≤ 0.06 µg/mL | MIC ([14]; S. pyogenes SWRI No. 89, read-out: MIC): ≤ 0.06 µg/mL | MBC ([15]; 5 S. edidermidis strains, read-out: MBC 50%): 4 µg/mL | MBC ([15]; 5 S. edidermidis strains, read-out: MBC 90%): 4 µg/mL | MBC ([15]; 5 S. edidermidis strains, read-out: MBC Range): 2 to 4 µg/mL | MIC50 ([15]; 5 S. edidermidis strains, read-out: MIC 50%): 2 µg/mL | MIC90 ([15]; 5 S. edidermidis strains, read-out: MIC 90%): 4 µg/mL | MIC ([15]; 5 S. edidermidis strains): 1 to 4 µg/mL

CN[C@H](CC(C)C)C(=O)N[C@H]1C(=O)N[C@@H](CC(N)=O)C(=O)N[C@H]2C(=O)N[C@H]3C(=O)N[C@H](C(=O)N[C@H](C(=O)O)c4cc(O)cc(O)c4-c4cc3ccc4O)[C@H](O)c3ccc(c(Cl)c3)Oc3cc2cc(c3O[C@@H]2O[C@H](CO)[C@@H](O)[C@H](O)[C@H]2O[C@H]2C[C@](C)(N)[C@H](O)[C@H](C)O2)Oc2ccc(cc2Cl)[C@H]1O [Vancomycin]
MBC [1]: 0.5 µg/mL (≈ 0.345 µM) | MIC [1]: 0.5 µg/mL (≈ 0.345 µM) | MBC [2]: 0.5 µg/mL (≈ 0.345 µM) | MIC [2]: 0.5 µg/mL (≈ 0.345 µM) | MBC [3]: 1 µg/mL (≈ 0.69 µM) | MIC [3]: 1 µg/mL (≈ 0.69 µM) | MBC [4]: 1 µg/mL (≈ 0.69 µM) | MIC [4]: 1 µg/mL (≈ 0.69 µM) | MBC [5]: 1 µg/mL (≈ 0.69 µM) | MIC [5]: 1 µg/mL (≈ 0.69 µM) | MBC [6]: 1 µg/mL (≈ 0.69 µM) | MIC [6]: 1 µg/mL (≈ 0.69 µM) | MBC [7]: 1 µg/mL (≈ 0.69 µM) | MIC [7]: 1 µg/mL (≈ 0.69 µM) | MBC [8]: 1 µg/mL (≈ 0.69 µM) | MIC [8]: 1 µg/mL (≈ 0.69 µM) | MBC [9]: 2 µg/mL (≈ 1.38 µM) | MIC [9]: 2 µg/mL (≈ 1.38 µM) | MBC [10]: 2 µg/mL (≈ 1.38 µM) | MIC [10]: 1 µg/mL (≈ 0.69 µM) | MBC [11]: > 125 µg/mL | MIC [11]: 1 µg/mL (≈ 0.69 µM) | MBC [12]: 16 µg/mL (≈ 11 µM) | MIC [12]: ≤ 0.06 µg/mL | MBC [13]: 16 µg/mL (≈ 11 µM) | MIC [13]: 16 µg/mL (≈ 11 µM) | MBC [14]: 16 µg/mL (≈ 11 µM) | MIC [14]: 16 µg/mL (≈ 11 µM) | MIC50 [15]: 1 µg/mL (≈ 0.69 µM) | MIC90 [15]: 1 µg/mL (≈ 0.69 µM) | MBC ([15]; read-out: MBC 50%): 1 µg/mL (≈ 0.69 µM) | MBC ([15]; read-out: MBC 90%): 2 µg/mL (≈ 1.38 µM) | MBC ([15]; read-out: MBC Range): 1 to 2 µg/mL (≈ 0.69 to 1.38 µM) | MIC [15]: 1 to 2 µg/mL (≈ 0.69 to 1.38 µM) | Survivors/Total ([16]; 0.78 mg/kg sc): 2/10 | Survivors/Total ([16]; 1.56 mg/kg sc): 9/10 | Survivors/Total ([16]; 3.13 mg/kg sc): 9/10 | Survivors/Total ([16]; 6.25 mg/kg sc): 10/10 | Survivors/Total ([16]; 12.5 mg/kg sc): 10/10 | ED50 ([16]; Staphylococcus aureus, sc, 168 h, read-out: Protective Dose 50% (95% Confidence Limits)): 1.1 mg/kg

Source: US4698350A, “1-ethyl-6-fluoro-1,4-dihydro- 7-(2,6-dimethyl-4-pyridinyl)-4-oxo-3-quinolinecarboxylic acid and antibacterial use thereof” (Sterling Drug Inc., priority 1984, dated 1987)
